Results as given in ChEMBL document CHEMBL3885861, “Open TG-GATES”.

Species on record: Rattus norvegicus
Assay: Open TG-GATES - Regimen: Daily Repeat
Type: toxicity, organism-based, Sprague-Dawley
Set-up: regimen Daily Repeat, gender Male, age 6 weeks
Settings: in vivo, po, 0 mg/kg, route gavage, dose level Control; for APTT / Bas / Eos / Fbg / Hb / Ht / Lym / MCH / MCHC / MCV / Mono / Neu / PT / Plat / RBC / Ret / WBC: tissue Blood; for KIDNEY_L / KIDNEY_R / KIDNEY_TOTAL: tissue Kidney; for LIVER: tissue Liver; for A/G / ALP / ALT / AST / BUN / CRE / Ca / Cl / DBIL / GLC / IP / K / LDH / Na / PL / RALB / TBIL / TC / TG / TP / gamma-GTP: tissue Plasma

CCc1oc2ccccc2c1C(=O)c1cc(Br)c(O)c(Br)c1 [BENZBROMARONE]
TERMINAL_BW (72 h, time 3 day): 230.4 g | APTT (72 h, time 3 day): 16.2 s | Bas (72 h, time 3 day): 0% | Eos (72 h, time 3 day): 1.6% | Fbg (72 h, time 3 day): 232 mg/dL | Hb (72 h, time 3 day): 14.5 g/dL | Ht (72 h, time 3 day): 42.7% | Lym (72 h, time 3 day): 73% | MCH (72 h, time 3 day): 22.5 pg | MCHC (72 h, time 3 day): 34% | MCV (72 h, time 3 day): 66.2 fL | Mono (72 h, time 3 day): 6.6% | Neu (72 h, time 3 day): 18.6% | PT (72 h, time 3 day): 11.7 s | Plat (72 h, time 3 day): 111.1 x10_4/uL | RBC (72 h, time 3 day): 645.6 x10_4/ul | Ret (72 h, time 3 day): 7.2% | WBC (72 h, time 3 day): 113.8 x10_2/uL | KIDNEY_L (72 h, time 3 day): 1 g | KIDNEY_R (72 h, time 3 day): 1 g | KIDNEY_TOTAL (72 h, time 3 day): 2 g | LIVER (72 h, time 3 day): 11.1 g | A/G (72 h, time 3 day): 2 | ALP (72 h, time 3 day): 921.2 IU/L | ALT (72 h, time 3 day): 34.6 IU/L | AST (72 h, time 3 day): 62.8 IU/L | BUN (72 h, time 3 day): 16.4 mg/dL | CRE (72 h, time 3 day): 0.5 mg/dL | Ca (72 h, time 3 day): 9.9 mg/dL | Cl (72 h, time 3 day): 106.3 meq/L | DBIL (72 h, time 3 day): 0.008 mg/dL | GLC (72 h, time 3 day): 197 mg/dL | IP (72 h, time 3 day): 7.5 mg/dL | K (72 h, time 3 day): 5.1 meq/L | LDH (72 h, time 3 day): 84.6 IU/L | Na (72 h, time 3 day): 139.5 meq/L | PL (72 h, time 3 day): 156.8 mg/dL | RALB (72 h, time 3 day): 3.9 g/dL | TBIL (72 h, time 3 day): 0.3 mg/dL | TC (72 h, time 3 day): 82 mg/dL | TG (72 h, time 3 day): 106 mg/dL | TP (72 h, time 3 day): 5.9 g/dL | gamma-GTP (72 h, time 3 day): 0.6 IU/L | TERMINAL_BW ([…], time 7 day): 262.9 g | TERMINAL_BW ([…], time 14 day): 315 g | TERMINAL_BW ([…], time 28 day): 382.2 g | APTT ([…], time 7 day): 16.8 s | Bas ([…], time 7 day): 0% | Eos ([…], time 7 day): 1% | Fbg ([…], time 7 day): 236.4 mg/dL | Hb ([…], time 7 day): 14.5 g/dL | Ht ([…], time 7 day): 42.7% | Lym ([…], time 7 day): 80% | MCH ([…], time 7 day): 21.4 pg | MCHC ([…], time 7 day): 33.8% | MCV ([…], time 7 day): 63.3 fL | Mono ([…], time 7 day): 6.6% | Neu ([…], time 7 day): 12.4% | PT ([…], time 7 day): 11.9 s | Plat ([…], time 7 day): 113.2 x10_4/uL | RBC ([…], time 7 day): 675 x10_4/ul | Ret ([…], time 7 day): 5.5% | WBC ([…], time 7 day): 109.7 x10_2/uL | APTT ([…], time 14 day): 16 s | Bas ([…], time 14 day): 0% | Eos ([…], time 14 day): 1.6% | Fbg ([…], time 14 day): 223.8 mg/dL | Hb ([…], time 14 day): 14.7 g/dL | Ht ([…], time 14 day): 43.8% | Lym ([…], time 14 day): 77.4% | MCH ([…], time 14 day): 20.9 pg | MCHC ([…], time 14 day): 33.6% | MCV ([…], time 14 day): 62.3 fL | Mono ([…], time 14 day): 4.4% | Neu ([…], time 14 day): 16.8% | PT ([…], time 14 day): 11.8 s | Plat ([…], time 14 day): 110.7 x10_4/uL | RBC ([…], time 14 day): 703.4 x10_4/ul | Ret ([…], time 14 day): 4.7% | WBC ([…], time 14 day): 138.1 x10_2/uL | APTT ([…], time 28 day): 16.6 s | Bas ([…], time 28 day): 0% | Eos ([…], time 28 day): 1% | Fbg ([…], time 28 day): 230.2 mg/dL | Hb ([…], time 28 day): 15.5 g/dL | Ht ([…], time 28 day): 46.5% | Lym ([…], time 28 day): 83.8% | MCH ([…], time 28 day): 18.6 pg | MCHC ([…], time 28 day): 33.3% | MCV ([…], time 28 day): 55.9 fL | Mono ([…], time 28 day): 3.8% | Neu ([…], time 28 day): 11.4% | PT ([…], time 28 day): 12 s | Plat ([…], time 28 day): 106.6 x10_4/uL | RBC ([…], time 28 day): 832 x10_4/ul | Ret ([…], time 28 day): 2.6% | WBC ([…], time 28 day): 136.5 x10_2/uL | KIDNEY_L ([…], time 7 day): 1.1 g | KIDNEY_R ([…], time 7 day): 1.2 g | KIDNEY_TOTAL ([…], time 7 day): 2.3 g | KIDNEY_L ([…], time 14 day): 1.2 g | KIDNEY_R ([…], time 14 day): 1.2 g | KIDNEY_TOTAL ([…], time 14 day): 2.4 g | KIDNEY_L ([…], time 28 day): 1.4 g | KIDNEY_R ([…], time 28 day): 1.4 g | KIDNEY_TOTAL ([…], time 28 day): 2.9 g | LIVER ([…], time 7 day): 12.8 g | LIVER ([…], time 14 day): 13.9 g | LIVER ([…], time 28 day): 15.8 g | A/G ([…], time 7 day): 1.7 | ALP ([…], time 7 day): 777 IU/L | ALT ([…], time 7 day): 31.8 IU/L | AST ([…], time 7 day): 60.6 IU/L | BUN ([…], time 7 day): 20.4 mg/dL | CRE ([…], time 7 day): 0.5 mg/dL | Ca ([…], time 7 day): 10.3 mg/dL | Cl ([…], time 7 day): 106.5 meq/L | DBIL ([…], time 7 day): 0.02 mg/dL | GLC ([…], time 7 day): 197.2 mg/dL | IP ([…], time 7 day): 7.1 mg/dL | K ([…], time 7 day): 5.1 meq/L | LDH ([…], time 7 day): 102.2 IU/L | Na ([…], time 7 day): 138.3 meq/L | PL ([…], time 7 day): 157.8 mg/dL | RALB ([…], time 7 day): 3.9 g/dL | TBIL ([…], time 7 day): 0.3 mg/dL | TC ([…], time 7 day): 74.4 mg/dL | TG ([…], time 7 day): 136.4 mg/dL | TP ([…], time 7 day): 6.1 g/dL | gamma-GTP ([…], time 7 day): 1 IU/L | A/G ([…], time 14 day): 1.8 | ALP ([…], time 14 day): 712.8 IU/L | ALT ([…], time 14 day): 30.6 IU/L | AST ([…], time 14 day): 62.6 IU/L | BUN ([…], time 14 day): 18.2 mg/dL | CRE ([…], time 14 day): 0.5 mg/dL | Ca ([…], time 14 day): 10.2 mg/dL | Cl ([…], time 14 day): 108.1 meq/L | DBIL ([…], time 14 day): 0.008 mg/dL | GLC ([…], time 14 day): 187.6 mg/dL | IP ([…], time 14 day): 6.5 mg/dL | K ([…], time 14 day): 4.9 meq/L | LDH ([…], time 14 day): 85.6 IU/L | Na ([…], time 14 day): 140.1 meq/L | PL ([…], time 14 day): 158.6 mg/dL | RALB ([…], time 14 day): 3.9 g/dL | TBIL ([…], time 14 day): 0.3 mg/dL | TC ([…], time 14 day): 78.6 mg/dL | TG ([…], time 14 day): 139.8 mg/dL | TP ([…], time 14 day): 6.1 g/dL | gamma-GTP ([…], time 14 day): 1.2 IU/L | A/G ([…], time 28 day): 1.6 | ALP ([…], time 28 day): 607.6 IU/L | ALT ([…], time 28 day): 28.2 IU/L | AST ([…], time 28 day): 58 IU/L | BUN ([…], time 28 day): 19.6 mg/dL | CRE ([…], time 28 day): 0.6 mg/dL | Ca ([…], time 28 day): 9.7 mg/dL | Cl ([…], time 28 day): 106.7 meq/L | DBIL ([…], time 28 day): 0.006 mg/dL | GLC ([…], time 28 day): 182 mg/dL | IP ([…], time 28 day): 6.5 mg/dL | K ([…], time 28 day): 4.5 meq/L | LDH ([…], time 28 day): 89.8 IU/L | Na ([…], time 28 day): 139.4 meq/L | PL ([…], time 28 day): 146.4 mg/dL | RALB ([…], time 28 day): 4 g/dL | TBIL ([…], time 28 day): 0.3 mg/dL | TC ([…], time 28 day): 70.4 mg/dL | TG ([…], time 28 day): 146.8 mg/dL | TP ([…], time 28 day): 6.4 g/dL | gamma-GTP ([…], time 28 day): 1.4 IU/L
